Here are results for one molecule from US20260041679A1, “METHOD OF TREATING HYPERTENSION WITH THE ALDOSTERONE SYNTHASE INHIBITOR BAXDROSTAT” (CINCOR PHARMA, INC., priority 2022, published 2026).

This data set in a line: Multiple ascending dose study, pharmacokinetics (Example 2). Type of data set: in vivo, human. The protocol: This randomized, double-blind, placebo-controlled phase 1 study evaluated the safety, pharmacokinetics, and pharmacodynamics of multiple ascending doses of baxdrostat in healthy volunteers. Fifty-six subjects were randomized to receive oral baxdrostat (0.5, 1.5, 2.5, or 5.0 mg) or placebo once daily for ten days and were placed on either a low salt or normal salt diet for the duration of the study. In particular, subjects were randomized into 5 cohorts to receive baxdrostat or placebo once daily for 10 days. Cohorts 1 and 2 were placed on a low salt diet to stimulate aldosterone production and were administered 2.5 or 5.0 mg oral baxdrostat, respectively. Cohorts 1 and 2 also underwent an adrenocorticotropic hormone (ACTH) challenge to increase aldosterone and cortisol levels to evaluate the specificity of baxdrostat for targeting aldosterone synthase. Cohorts 3, 4, and 5 were placed on a normal salt diet and were administered 1.5, 2.5, or 0.5 mg oral baxdrostat, respectively. Blood samples were collected prior to and after dosing on days 1 and 10 for measurement of plasma baxdrostat concentrations to characterize single-dose and steady-state pharmacokinetics. Pharmacodynamic measurements included plasma aldosterone, cortisol, and electrolytes. Safety assessments included physical examination, electrocardiograms, orthostatic vital signs, and clinical laboratory evaluations.

For `CCC(=O)N[C@@H]1CCCc2c(-c3ccc4c(c3)CCC(=O)N4C)cncc21` [baxdrostat, (R)—N-(4-(1-methyl-2-oxo-1,2,3,4-tetrahydroquinolin-6-yl)-5,6,7,8-tetrahydroisoquinolin-8-yl) propionamide], under “0.5 to 5.0 mg once daily”, the “plasma levels of baxdrostat vs dose” value is “increased proportionally with ascending doses” and the “time of peak concentrations after dosing” value was at most 4 h. Moreover, the half-life (usually the time in which the quantity being followed falls by half) (human, plasma, oral, 0.5 to 5.0 mg once daily) lay in the range of 26 to 31 h. In addition, under “oral, healthy subjects”, the absorption result is “rapidly absorbed”.
